In patent publication US7196110B2, “N-substituted tricyclic 3-aminopyrazoles as inhibitors for the treatment of cell proliferative disorders” (Janssen Phamaceutica N.V., priority 2002, dated 2007) one finds inhibition and IC50 data, which are given here for 24 compounds.

The target in the assay is T1, PDGF-receptor beta enzyme comprising the tyrosine kinase domain (Homo sapiens, UniProt P09619).
T1 construct: from amino acid 545 to 1106 of GenBank Access NO: AAA36427
The assay is described as follows: Inhibition of PDGF-receptor kinase activity (cell-free, PLC1 peptide, 33P Flashplate). Type of assay: biochemical. As to conditions: for inhibition at 10 µM: compound at 10 uM, read-out: Percent Inhibition @ 10 uM. As to the method: PDGF-R kinase activity was assayed by its ability to phosphorylate one of its target proteins, PLCγ, in a cell-free system, in particular, a PLC1 peptide comprising the tyrosine residue where the phosphorylation occurs was used for the assay.
10× Kinase Buffer (500 mM Tris-HCl pH=8, 100 mM MgCl2, 1 mM Na3VO4); 10 mM DTT (final concentration at 1 mM in assay); 10 mM ATP (final concentration at 5 μM in assay); ^33P-γ-ATP (Cat. No.: NEG/602H. 2000-3000 Ci/mmol) purchased from NEN; Purified, soluble, recombinant PDGF-receptor beta enzyme comprising the tyrosine kinase domain (from amino acid 545 to 1106 of GenBank Access NO: AAA36427 ) at 0.4 mg/mL; Enzyme Dilution Buffer (50 mM Tris-HCl pH=8.0, 0.1% BSA); Wash/Stop Buffer (PBS +100 mM EDTA); NEN Streptavidin Flashplates (Cat. No.: SMP-103) which binds to the biotinylated PLC1 peptide but not the PDGF-R enzyme; PLC1 peptide (Biotin-[…]-Amide) at 1 mM in 50 mM Tris-HCL with pH of 8.0.
Reagents were first mixed according the following regimen:
The above reaction mixture was dispensed into each well of a Flashplate at 70 μl/well. To test the effect of a compound on PDGF-R kinase activity, the test compound either in a fixed concentration or in serially diluted concentrations in 100% DMSO was added to appropriate wells at 1 μl/well.
Enzyme PDGF-R was diluted in Enzyme dilution buffer as following:
The kinase reaction was initiated by adding 30 μl of diluted PDGF-R enzyme solution to each well on the Flashplate containing hot ATP and PLC1, except wells of column 12 rows E through H, which were used to calculate the plate background. The Flashplate was swirled to mix and was incubated at 30° C. for 60 minutes. Then, the reaction mixture was discarded and the Flashplate was washed 3 times each with 200 μl Wash/Stop Buffer. Subsequently, each well on the Flashplate was filled with 200 μl of Wash/Stop buffer. The amount of ^33P retained in each well was measured using a Packard TopCount after the plate was sealed with a transparent plate sealer.
The percentage of inhibition of the test compound on PDGF-R kinase activity is defined as […].
In order to test the potency of inhibition of present compounds, an IC50 for an individual compound was measured using the above procedure. As used herein, the IC50 for PDGF-R kinase activity refers to the concentration of an inhibitor at which the activity of the PDGF-R kinase is reduced by one-half as compared with reactions containing no inhibitor.

The mark [1] stands for this setting: PDGF-R kinase activity, read-out: IC50.

Where two headings read alike, the source gives them in different places.

T1 sequence (P09619 545-1106): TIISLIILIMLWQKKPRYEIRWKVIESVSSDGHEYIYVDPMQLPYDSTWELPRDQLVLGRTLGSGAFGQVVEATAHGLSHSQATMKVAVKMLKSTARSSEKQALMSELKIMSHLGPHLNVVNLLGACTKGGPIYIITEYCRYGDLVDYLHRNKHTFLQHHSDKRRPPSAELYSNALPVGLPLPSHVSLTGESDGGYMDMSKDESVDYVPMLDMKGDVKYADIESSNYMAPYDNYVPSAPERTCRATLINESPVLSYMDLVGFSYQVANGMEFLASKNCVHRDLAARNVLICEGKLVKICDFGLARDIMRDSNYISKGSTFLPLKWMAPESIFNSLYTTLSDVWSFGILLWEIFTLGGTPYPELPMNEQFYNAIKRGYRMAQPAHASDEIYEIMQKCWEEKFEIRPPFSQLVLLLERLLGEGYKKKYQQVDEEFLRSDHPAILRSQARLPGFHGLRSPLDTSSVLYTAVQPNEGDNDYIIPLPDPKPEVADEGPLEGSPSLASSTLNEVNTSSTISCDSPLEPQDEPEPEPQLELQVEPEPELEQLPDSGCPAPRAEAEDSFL

Turning to `COC(=O)CCCC(=O)n1nc(Nc2cccc(F)c2)c2c1-c1cc(OC)c(OC)cc1C2` [Compound 464, 5-[3-(3-Fluoro-phenylamino)-6,7-dimethoxy-4H-indeno[1,2-c]pyrazol-1-yl]-5-oxo-pentanoic acid methyl ester], where the note is “PDGF-R kinase activity”, the inhibition at 10 µM amounted to 92%. For the same compound, under setting [1], the IC50 came to 0.245 µM.
In the same order, the values of `COc1cccc(Nc2[nH]nc3c2C(C(C)C)c2cc(OC)c(OC)cc2-3)c1` (stereo not shown) [Compound 541, (4-lsopropyl-6,7-dimethoxy-2,4-dihydro-indeno[1,2-c]pyrazol-3-yl)-(3-methoxy-phenyl)-amine] are 50% and 44.2 µM.
The corresponding values for `CCOc1cc2c(cc1OCCCO)-c1n[nH]c(Nc3cccc(Cl)c3)c1C2` [Compound 367, 3-[3-(3-Chloro-phenylamino)-6-ethoxy-2,4-dihydro-indeno[1,2-c]pyrazol-7-yloxy]-propan-1-ol] are 97% and 0.00814 µM.
The corresponding values for `CCOC(=O)c1ccc(Nc2[nH]nc3c2Cc2cc(OC)c(OC)cc2-3)cc1` [Compound 10, 4-(6,7-Dimethoxy-2,4-dihydro-indeno[1,2-c]pyrazol-3-ylamino)-benzoic acid ethyl ester] are 68% and 2.07 µM.
Consider `CC1c2ccccc2-c2n[nH]c(Nc3ccc(F)cc3)c21` (stereo not shown) [Compound 106, (4-Fluoro-phenyl)-(4-methyl-2,4-dihydro-indeno[1,2-c]pyrazol-3-yl)-amine], for which the inhibition at 10 µM (PDGF-R kinase activity) amounted to 38%. The IC50 under setting [1] was 1.05 µM.
Turning to `COc1cc2c(cc1OC)-c1n[nH]c(Nc3cccc4c3OC(F)(F)O4)c1C2` [Compound 565, (2,2-Difluoro-benzo[1,3]dioxol-4-yl)-(6,7-dimethoxy-2,4-dihydro-indeno[1,2-c]pyrazol-3-yl)-amine], the inhibition at 10 µM (PDGF-R kinase activity) came to 41.5%.
On to `COc1cc2c(cc1OC)-c1c(c(Nc3cccc(F)c3)nn1C(=O)c1ccc(Cl)cc1)C2` [Compound 494, (4-Chloro-phenyl)-[3-(3-fluoro-phenylamino)-6,7-dimethoxy-4H-indeno[1,2-c]pyrazol-1-yl]-methanone], for which, where the note is “PDGF-R kinase activity”, the inhibition at 10 µM is 83%. The IC50 under setting [1] was 1.54 µM.
The corresponding values for `COCCCOc1cc2c(cc1OC)-c1n[nH]c(Nc3ccc(F)c(Cl)c3)c1C2` [Compound 166, (3-Chloro-4-fluoro-phenyl)-[7-methoxy-6-(3-methoxy-propoxy)-2,4-dihydro-indeno[1,2-c]pyrazol-3-yl]-amine] are 88% and 0.085 µM.
Turning to `COc1cc2c(cc1OC)-c1n[nH]c(N3CCc4cc(Br)ccc43)c1C2` [Compound 567, 3-(5-Bromo-2,3-dihydro-indol-1-yl)-6,7-dimethoxy-2,4-dihydro-indeno[1,2-c]pyrazole], the inhibition at 10 µM (PDGF-R kinase activity) was determined as 39.5%.
Take `Fc1ccc2c(c1)Cc1c-2n[nH]c1Nc1ccc(C(F)(F)F)cc1` [Compound 237, (6-Fluoro-2,4-dihydro-indeno[1,2-c]pyrazol-3-yl)-(4-trifluoromethyl-phenyl)-amine]: for the setting “PDGF-R kinase activity”, the inhibition at 10 µM is 88%. Besides, the IC50 under setting [1] amounted to 0.05 µM.
On to `COc1ccc(Nc2[nH]nc3c2Cc2ccc(C)cc2-3)cc1` [Compound 183, (4-Methoxy-phenyl)-(7-methyl-2,4-dihydro-indeno[1,2-c]pyrazol-3-yl)-amine], for which the inhibition at 10 µM (PDGF-R kinase activity) came to 53%. Also, the IC50 under setting [1] is 0.545 µM.
In the same order, the values of `CCC1c2cc(OC)c(OC)cc2-c2n[nH]c(Nc3cccc(OC)c3)c21` (stereo not shown) [Compound 512, (4-Ethyl-6,7-dimethoxy-2,4-dihydro-indeno[1,2-c]pyrazol-3-yl)-(3-methoxy-phenyl)-amine] are 92% and 0.183 µM.
As for `COc1cc2c(cc1OC)-c1n[nH]c(NCc3cccc(Cl)c3Cl)c1C2` [Compound 326, (2,3-Dichloro-benzyl)-(6,7-dimethoxy-2,4-dihydro-indeno[1,2-c]pyrazol-3-yl)-amine], the inhibition at 10 µM (PDGF-R kinase activity) was 82%. Further, the concentration for half-maximal inhibition (IC50) under setting [1] worked out at 0.267 µM.
In the same order, the values of `COc1ccc2c(c1)Cc1c-2n[nH]c1Nc1ccc(OC(F)(F)F)cc1` [Compound 88, (6-Methoxy-2,4-dihydro-indeno[1,2-c]pyrazol-3-yl)-(4-trifluoromethoxy-phenyl)-amine] are 42% and 20.8 µM.
Consider `COc1cc2c(cc1OC)-c1n[nH]c(Nc3ccc(C)cc3)c1C2` [Compound 33, (6,7-Dimethoxy-2,4-dihydro-indeno[1,2-c]pyrazol-3-yl)-p-tolyl-amine], for which the inhibition at 10 µM (PDGF-R kinase activity) is 59%. Further, under setting [1], the IC50 came to 1.41 µM.
The corresponding values for `COc1cc2c(cc1OC)-c1n[nH]c(Nc3cc(Cl)ccc3Cl)c1C2` [Compound 34, (2,5-Dichloro-phenyl)-(6,7-dimethoxy-2,4-dihydro-indeno[1,2-c]pyrazol-3-yl)-amine] are 57% and 6.99 µM.
In the same order, the values of `COc1cc2c(cc1OC)-c1n[nH]c(NCc3cccnc3)c1C2` [Compound 564, (6,7-Dimethoxy-2,4-dihydro-indeno[1,2-c]pyrazol-3-yl)-pyridin-3-ylmethyl-amine] are 99.5% and 0.886 µM.
Consider `CCC1c2cc(OC)c(OC)cc2-c2n[nH]c(Nc3cccnc3Cl)c21` (single isomer, unassigned) [Compound 607, (2-Chloro-pyridin-3-yl)-(4-ethyl-6,7-dimethoxy-2,4-dihydro-indeno[1,2-c]pyrazol-3-yl)-amine], for which the inhibition at 10 µM (PDGF-R kinase activity) came to 78%. Besides, the IC50 (read-out: IC50 (μM) on PDGF-R kinase activity) is 0.547 µM.
Take `Nc1ccc2c(c1)Cc1c-2n[nH]c1Nc1ccccc1` [Compound 66, N3-Phenyl-2,4-dihydro-indeno[1,2-c]pyrazole-3,6-diamine]: for the setting “PDGF-R kinase activity”, the inhibition at 10 µM came out at 108%. Also, the IC50 under setting [1] is 0.092 µM.
In the same order, the values of `Cc1cccc2c1Cc1c-2n[nH]c1Nc1ccc(F)cc1` [Compound 98, (4-Fluoro-phenyl)-(5-methyl-2,4-dihydro-indeno[1,2-c]pyrazol-3-yl)-amine] are 26% and 30.7 µM.
The corresponding values for `COc1cc2c(cc1OC)-c1nn(Cc3ccc(OC(C)=O)cc3)c(Nc3cccc(F)c3)c1C2` [Compound 499, Acetic acid 4-[3-(3-fluoro-phenylamino)-6,7-dimethoxy-4H-indeno[1,2-c]pyrazol-2-ylmethyl]-phenyl ester] are 87% and 1.74 µM.
In the same order, the values of `COc1cc2c(cc1OC)-c1c(c(Nc3cccc(F)c3)nn1C(=O)c1ccccc1F)C2` [Compound 481, (2-Fluoro-phenyl)-[3-(3-fluoro-phenylamino)-6,7-dimethoxy-4H-indeno[1,2-c]pyrazol-1-yl]-methanone] are 59% and 3.76 µM.
In the case of `COc1cc2c(cc1OC)C(C)c1c(Nc3cccc(Br)c3)nn(C(=O)OCCOCCOCCO)c1-2` (stereo not shown) [Compound 548, 3-(3-Bromo-phenylamino)-6,7-dimethoxy-4-methyl-4H-indeno[1,2-c]pyrazole-1-carboxylic acid 2-[2-(2-hydroxy-ethoxy)-ethoxy]-ethyl ester], where the note is “PDGF-R kinase activity”, the inhibition at 10 µM worked out at 82.5%. Also, the IC50 under setting [1] worked out at 0.214 µM.
As for `CC(C)Oc1cc2c(cc1OC(C)C)C(C)c1c-2n[nH]c1Nc1cccc(Br)c1` (stereo not shown) [Compound 353, (3-Bromo-phenyl)-(6,7-diisopropoxy-4-methyl-2,4-dihydro-indeno[1,2-c]pyrazol-3-yl)-amine], under “PDGF-R kinase activity”, the inhibition at 10 µM turned out to be 88%. Further, the IC50 under setting [1] worked out at 0.359 µM.

A word on the inhibition: it is the relative decrease from the control value, in per cent. Usually IC50 stands for the midpoint of a concentration-inhibition curve.
